Laboratory results from US20240350454A1, “BACTERIAL EFFLUX PUMP INHIBITORS AND METHODS OF USE” (THE REGENTS OF THE UNIVERSITY OF COLORADO, priority 2021, published 2024).

How the values were obtained:
Format in all cases: cell-based
E. coli BAA-2340 = assay: Chloramphenicol MIC with selected compound in MHB; settings: Escherichia coli, BAA2340, antibiotic alone (row None), MHB
Description: (§1) MIC for the antibiotic alone (i.e., in the absence of the disclosed compounds) is provided in the first row labeled “None”. […] […] At this concentration (50 μg/mL), the compounds of the disclosure lacked intrinsic antibacterial activity but a significant improvement in efficacy was still observed. Thus, the compounds of the disclosure may be used to potentiate the activity of antibiotics that have lost their efficacy due to efflux.

[1] = test system: P. aeruginosa Focus MB0477; assay: Chloramphenicol MIC with selected compound in MHB; settings: Pseudomonas aeruginosa, FOCUSMB0477, antibiotic alone (row None), MHB
Description: as §1

A. baumannii MB306 = assay: Chloramphenicol MIC with selected compound in MHB; settings: Acinetobacter baumannii, antibiotic alone (row None), MHB
Excerpt: (§2) MIC for the antibiotic alone (i.e., in the absence of the disclosed compounds) is provided in the first row labeled “None”. […] […] […] Thus, the compounds of the disclosure may be used to potentiate the activity of antibiotics that have lost their efficacy due to efflux.

A. baumannii MB309 = assay: Chloramphenicol MIC with selected compound in MHB; settings: Acinetobacter baumannii, antibiotic alone (row None), MHB
Excerpt: as §2

E. cloacae BAA-2341 = assay: Chloramphenicol MIC with selected compound in MHB; settings: Enterobacter cloacae, BAA2341, antibiotic alone (row None), MHB
Excerpt: as §2

K. pneumoniae BAA-2342 = assay: Chloramphenicol MIC with selected compound in MHB; settings: Klebsiella pneumoniae, BAA2342, antibiotic alone (row None), MHB
Excerpt: as §2

K. pneumoniae BAA-1705 = assay: Ciprofloxacin MIC with selected compound in MHB; settings: Klebsiella pneumoniae, BAA1705, read-out: Ciprofloxacin MIC, antibiotic alone (row None), MHB
Description: as §1

[2] = test system: S. enterica serovar Typhimurium SL1344 sifB::gfp in RAW264.7 macrophages; assay: SAFIRE assay, intracellular bacterial load in macrophages; settings: Salmonella enterica
Description: The following experiments were performed using the SAFIRE assay described in U.S. Publication 2020/0022961, which is incorporated by reference in its entirety for all purposes. SAFIRE (Screen for Anti-infectives using Fluorescence microscopy of IntracellulaR Enterobacteriaceae) uses cell culture as a surrogate to identify compounds that prevent intracellular replication of a model Gram-negative bacterial human pathogen. The method identifies compounds that prevent bacterial growth in broth culture and compounds that decrease the load of Gram-negative bacteria inside of macrophages at concentrations≤10 μM but have no effect on bacterial growth in standard Mueller Hinton broth (MHB) at 100 μM. Thus, SAFIRE enables the discovery of compounds that are effective against Gram-negative bacteria in host cells and in whole animals, whether or not they are antibacterial in broth.
The wild-type S. enterica serovar Typhimurium strain, SL1344, was initially isolated from the blood of an infected calf. For screening and validation in macrophages, SL1344 sifB::gfp was grown in Luria-Bertani Broth (LB) with 30 μg/ml streptomycin and 30 μg/ml kanamycin to saturation overnight, diluted to an OD of 0.001 and frozen in 100 μL aliquots in 20% glycerol at −80° C. Prior to infection, aliquots were grown in 5 mL cultures of LB with 30 μg/ml streptomycin and 30 μg/ml kanamycin for 18 hours at 37° C. with aeration. Bacterial strains were routinely grown in LB with antibiotics: 30 μg/ml streptomycin, 30 μg/ml kanamycin, 50 μg/ml ampicillin, 10 μg/ml tetracycline, and/or 1.15 μg/ml meropenem. The acrAB::kan and macAB::kan strains were constructed according to known methods. S. enterica subsp. enterica, serovar Typhimurium strain S10801, NR-22067 is a multidrug resistant isolate from a calf with sepsis. This strain and others as indicated were obtained through BEI resources, NIAID, NIH.
(§3) Murine macrophage-like RAW 264.7 cells and HeLa human epithelial cells were obtained from the American Type Tissue Collection. BMDMs were isolated as previously described. Briefly, marrow was flushed from the femurs of 1- to 4-month-old 129SvEvTac mice (Taconic Laboratories) bred in-house. Mononuclear cells were separated using Histopaque-1083 (Sigma), washed, and directly seeded into assay plates at 1×10^5 cells/ml in complete medium supplemented with 35% conditioned media from 3T3 cells expressing MCSF. Media were refreshed three days later. After 1 week, media were replaced with 100 μL fresh media and cells were infected as described below. All three types of cells were grown in DMEM high glucose (Sigma) supplemented with 10% fetal bovine serum, 2 mM L-glutamine, 1 mM sodium pyruvate, 10 mM HEPES, and 50 μMβ-mercaptoethanol. Cells were maintained in a 5% CO2 humidified atmosphere at 37° C. For screening, frozen aliquots of RAW 264.7 were thawed and allowed to expand for three days prior to seeding; other experiments were performed with cultures between passages four and 20.
SAFIRE—RAW264.7 macrophages (7×103 in 40 μL or 5×104 in 100 μL) were seeded, respectively, in 384- or 96-well black-walled glass-bottomed plates (Brooks Automation). Twenty four hours post-seeding, bacteria in 20 or 50 μL PBS were added to a final concentration of 1×10^7 CFU/mL, conditions yielding infection of approximately 70% of macrophages at 18 hours post-infection with minimal macrophage toxicity. The sifB::gfp bacterial reporter strain was used to minimize green signal from extracellular bacteria. […] At two hours post-infection, 200 or 500 nL compound was added using a pin tool (CyBio) to yield a final concentration of 25 μM. Each assay plate included rifampicin and DMSO controls. In some experiments, media were removed and replaced with fresh media containing 40 μg/mL gentamicin and increasing concentrations of the compounds of the disclosure. […]

RAW264.7 macrophages = settings: mouse, 16 h
Excerpt: as §3
SAFIRE—RAW264.7 macrophages (7×103 in 40 μL or 5×104 in 100 μL) were seeded, respectively, in 384- or 96-well black-walled glass-bottomed plates (Brooks Automation). Twenty four hours post-seeding, bacteria in 20 or 50 μL PBS were added to a final concentration of 1×10^7 CFU/mL, conditions yielding infection of approximately 70% of macrophages at 18 hours post-infection with minimal macrophage toxicity. The sifB::gfp bacterial reporter strain was used to minimize green signal from extracellular bacteria. […] At two hours post-infection, 200 or 500 nL compound was added using a pin tool (CyBio) to yield a final concentration of 25 μM. Each assay plate included rifampicin and DMSO controls. In some experiments, media were removed and replaced with fresh media containing 40 μg/mL gentamicin and increasing concentrations of the compounds of the disclosure. At 17.5 hours post-infection, PBS containing MitoTracker Red CMXRos (Life Technologies) was added to a final concentration of 300 nM or 100 nM, for 384- or 96-well, respectively. Thirty minutes later, 16% paraformaldehyde was added to a final concentration of […] and incubated at room temperature for 15 minutes. Wells were washed twice with PBS and stained for 20 minutes with 1 μMDAPI; wells were washed twice and stored in 90% glycerol in PBS until imaging. The Z′-factor of the screening platform was 0.59 and 0.48 in 96-well and 384-well plates, respectively, within published ranges for complicated cell-based screens.
In addition, toxicity was measured according the following procedure: 1) analyzing macrophage cell morphology; and 2) using MATLAB to count cells (cells that lift up and float after treatment are not within the appropriate Z plane to be counted, and thus are considered dead). If 70% of the cells are adherent (as measured by comparing the number of cells before and after treatment), the compound is considered not toxic. Compounds that pass #1 and #2 above are considered to have a toxicity “>50 μM”. […]

E. Cloacae MB315 = assay: PMB MIC with selected compound in MHB; settings: Enterobacter cloacae, selected compound 50 μg/mL in MHB
Description: as §1

Row | Structure (SMILES) | IC50 [2] [nM] | Toxicity (RAW264.7 macrophages) | MIC (E. Cloacae MB315) [µg/mL] | also measured
1 | O=C(N[C@H](CO)[C@H](O)c1ccc([N+](=O)[O-])cc1)C(Cl)Cl [Chloramphenicol, chloramphenicol] |  |  |  | MIC (E. coli BAA-2340): 64 µg/mL; MIC [1]: 64 µg/mL; MIC (A. baumannii MB306): > 64 µg/mL; MIC (A. baumannii MB309): > 64 µg/mL; MIC (E. cloacae BAA-2341): 16 µg/mL; MIC (K. pneumoniae BAA-2342): 64 µg/mL
2 | O=C(O)c1cn(C2CC2)c2cc(N3CCNCC3)c(F)cc2c1=O [Ciprofloxacin, ciprofloxacin] |  |  |  | MIC (K. pneumoniae BAA-1705): > 64 µg/mL
3 | NC1CCN(CC(O)COc2ccc(Cl)c(Cl)c2)C1 (centres unmarked) [Compound 1] | < 1000 | >50 µM | 32 | 
4 | NC1CCN(C[C@H](O)COc2ccc(Cl)c(Cl)c2)C1 (some centres unmarked) [Compound 2] | < 1000 | >50 µM |  | 
5 | NC1CCN(C[C@@H](O)COc2ccc(Cl)c(Cl)c2)C1 (some centres unmarked) [Compound 3] | < 1000 | >50 µM | 32 | 
6 | NC1CCN(CC(O)COc2ccc(Cl)c(Cl)c2)CC1 (centres unmarked) [Compound 4] | < 1000 | <25 µM | 16 | 
7 | OC(COc1ccc(Cl)c(Cl)c1)CN1CCC(n2ccnc2)CC1 (centres unmarked) [Compound 5] | < 1000 | >50 µM |  | 
8 | NC1CCN(CC(O)COc2ccc(Cl)cc2)CC1 (centres unmarked) [Compound 6] | < 1000 | >50 µM |  | 
9 | NC1CCN(CC(O)COc2ccc(Cl)cc2Cl)CC1 (centres unmarked) [Compound 7] | < 1000 | <50 but >25 μM | 32 | 
10 | NC1CCN(CC(O)COc2c(Cl)cccc2Cl)CC1 (centres unmarked) [Compound 8] | < 1000 | >50 µM |  | 
11 | N[C@@H]1CCN(CC(O)COc2ccc(Cl)c(Cl)c2)C1 (some centres unmarked) [Compound 9] | < 1000 | >50 µM |  | 
